This is an account of results in patent publication EP1097716A1, “Dietary anti-adiposity food supplements and drugs based on thyrotropin-releasing hormone (TRH)” (Chronolife Inc., priority 1999, dated 2001).

The nature of data set [1]: Toxicity of increasing doses in the drinking water.
A short description of data set [2]: 20-day intraperitoneal treatment, blood levels of T3, T4 and TSH by radioimmunoassay in serum (Table 7). The class given is in vivo, C57BL/6 male mice. The settings on record: for T3 / T4 / TSH (µU/mL): serum, Mean ± SD. As for the experimental part:
This is shown by Table 7 hereafter which report the results of assays which were ran under the following conditions.
C57BL/6 male mice aged 9 months, were injected intraperitonealy for 20 days at 6 p.m. (evening) or at 8 a.m. (morning) with 0.5 ml volumes containing either 10 µg or 100 µg of TRH in bidistilled water. Controls were injected with the same amount of diluent. The mice were bled from the retroorbital venus plexus under rapid acute ether anaesthesia at 10 a.m. T3, T4 and TSH were measured by radioimmunoassay in the serum of individual mice. TABLE 7: […]

Data set [3] relates to anterior hypothalamic area (AHA)-lesioned obese mice. Nature of the data set: 48-day intraperitoneal treatment of AHA-lesioned obese mice, body weight (Table 5). The settings on record: N=4, Mean ± SD. The class given is in vivo, C57BL/6 female mice. As for the experimental part:
C57BL/6 female mice aged 8 months (AHA-lesioned at 2 months of age to induce obesity), were injected intraperitoneally for 48 days at 6 pm (evening) with 0.5 ml volume containing 10 µg TRH-tartrate in bidistilled water. Controls were injected with the same amount of diluent.

In data set [4] the test system is old female mice. Briefly: Chronic oral administration in drinking water, aging-related adiposity, body weight (Table 8). The class given is in vivo, BALB/cJ X C57BL/6 F1 female mice. Particulars: n=15, Mean ± SD. The text has this:
With other words, progressive alteration of pineal-hypothalamic-pituitary-peripheral endocrine glands function in the course of aging leads to the most typical appearance of decreased tolerance to glucose (hyperglycemia), increased levels of lipids, in particular triglycerides and cholesterol (hyperlipidemia) and progressive accumulation of fat, which is not obesity but the most common expression of hormonal derangements. TRH taken chronically will maintain normal body weight in normal aging mice, while the normal controls put on fat and weight.
The results reported in Table 8 clearly support the presumption that TRH is also capable of preventing onset of aging-related adiposity in humans.

The conditions of data set [5]: aging mice (18 month-old mice) compared with young, e.g. three month-old mice; cited from earlier work.
Data set [6] is described as follows: 2 months treatment, blood levels of cholesterol and triglycerides in old mice (Table 9). The data set is classed as in vivo, BALB/cJ female mice. The settings on record: 2 months treatment started in 20-month-old female mice, n = 10, dosages as for Table 7. The text has this:
Evidence that the lipid related compounds whose proportions in the blood circulation of old mice have a cause different from those observed in young mice treated with TRH seems further indicated by the fact that the weight of 16 month-old female mice, thus older mice which tend to accumulate age-related adiposity, can also be controlled and even reduced by the adsorption of TRH (see table 8). Indeed the contents in lipid-related compounds in the blood circulation of older mice (20 month-old mice) treated with TRH remain substantially unaltered, as evidenced by the results shown in Table 9 hereafter. The dosages of TRH were the same as in the assay reported in relation to Table 7.

The test system of data set [7] is obese, anterior hypothalamic area (AHA)-lesioned mice. Briefly: 20-day intraperitoneal treatment of obese AHA-lesioned mice, body weight (Table 3). The data set is classed as in vivo, C57BL/6 male mice. The settings on record: N=6, Mean ± SD; for Body weight (g): p<0.05 vs before treatment. How it is done:
C57BL/6 male mice aged 7 months (AHA-lesioned at 2 months of age to induce obesity), were injected intraperitoneally for 20 days at 6 pm (evening) with 0.5 ml volume containing 10 µg TRH-tartrate in bidistilled water. Controls were injected with the same amount of diluent.

[8] abbreviates: TRH evening (6 p.m.) 10 µg i.p. for 20 days.
The mark [9] stands for this setting: TRH evening (6 p.m.) 100 µg i.p. for 20 days.
[10] abbreviates: TRH morning (8 a.m.) 10 µg i.p. for 20 days.
Setting [11] is: TRH morning (8 a.m.) 100 µg i.p. for 20 days.

Consider `COc1ccc2[nH]cc(CCNC(C)=O)c2c1` [melatonin], for which, in data set [1], the toxicity entry is on record as “not toxic”.

With (pyro)Glu-His-Pro NH2 [TRH], the “T3” value in data set [2] (setting [8]) stood at 0.82 ± 0.08 nmol/L; in data set [2] (setting [9]), 0.91 ± 0.02 nmol/L; in data set [2] (setting [10]), 1.03 ± 0.07 nmol/L; in data set [2] (setting [11]), 0.84 ± 0.02 nmol/L. For the same compound, the “T4” value in data set [2] (setting [8]) is given as 65.7 ± 4.2 nmol/L; in data set [2] (setting [9]), 68.7 ± 13.1 nmol/L; in data set [2] (setting [10]), 82.0 ± 1.9 nmol/L; in data set [2] (setting [11]), 74.9 ± 13.3 nmol/L. For the same compound, the “TSH (µU/mL)” value in data set [2] (setting [8]) was 0.005 ± 0.004 µU/mL; in data set [2] (setting [9]), 0.004 ± 0.005 µU/mL; in data set [2] (setting [10]), 0.009 ± 0.006 µU/mL; in data set [2] (setting [11]), 0.007 ± 0.005 µU/mL. The acute toxicity entry in data set [2] (injected at huge dosages (up to 100 µg i.p. for 20 days)) is recorded as “lack of acute toxicity”. For the same compound, the “Body weight” value is given as 39.2 ± 7.2 g in data set [3] (After 27 days of treatment, 10 µg TRH-tartrate i.p. daily at 6 pm); 42.2 ± 6.4 g in data set [3] (Before treatment, AHA-lesioned female mice aged 8 months); 33.7 ± 4.2 g in data set [7] (After 10 days of treatment, 10 µg TRH-tartrate i.p. daily at 6 pm); 38.3 ± 5.9 g in data set [7] (After withdrawal period of 60 days following 20-day treatment); 39.0 ± 6.2 g in data set [7] (Before treatment, AHA-lesioned male mice aged 7 months). In addition, the “Body weight (g)” value is recorded as 32.6 ± 4.4^∗ g in data set [3] (After 48 days of treatment, 10 µg TRH-tartrate i.p. daily at 6 pm, p<0.05 vs before treatment); 32.0 ± 3.6^∗ g in data set [7] (After 20 days of treatment, 10 µg TRH-tartrate i.p. daily at 6 pm); 31.1 ± 3.4^∗ g in data set [7] (After withdrawal period of 5 days following 20-day treatment). Also, in data set [4] (16 month-old female mice), the “Body weight (g) before treatment” value is 33.1 ± 3.2 (15) g. In addition, the “Body weight (g) after treatment” value in data set [4] (TRH-tartrate in the drinking water (100µg/ml) for 5 months, started at 16 months of age) was 33.8 ± 4.0 (15) g. Moreover, the “levels of cholesterol, triglycerids and phospholipids” value in data set [5] is recorded as “brought back to values currently observed in young mice”. Further, the “CHOLESTEROL” value in data set [6] came out at 1.65 ± 0.29 mmol/L. In data set [6], the “TRIGLYCERIDES” value was determined as 1.19 ± 0.46 mmol/L.
